Patent US9469645B2, “Compounds and compositions for the treatment of parasitic diseases” (Novartis AG, priority 2009, dated 2016)
Where two headings read alike, the source gives them in different places.

Key:
W2 strain [1] = test: parasite proliferation assay in infected red blood cells (SYBR Green I), W2 strain; assay type: cell-based, Plasmodium falciparum
From the text: (§1) Compounds of the invention can be assayed to measure their capacity to inhibit proliferation of parasitemia in infected red blood cells. The proliferation is quantified by the addition of SYBR Green I (INVITROGEN)® dye which has a high affinity for double stranded DNA.

3D7 P. falciparum strain = test: parasite proliferation assay in infected red blood cells (SYBR Green I); assay type: cell-based, Plasmodium falciparum; details: 3D7 strain, read-out: EC50 3D7 strain
Method in brief: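 P. falciparum 3D7 grown in O+ human erythrocytes to 3–8% parasitemia and exposed to compounds. Proliferation read as the increase in parasite DNA. Detection used SYBR Green I in saponin/triton-X/EDTA lysis buffer, with overnight lysis at room temperature.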

NF54 = test: parasite proliferation assay in infected red blood cells (SYBR Green I), NF54 strain; assay type: cell-based; details: Plasmodium falciparum, 3D7 / NF54, Erythrocyte; cell marked (NF54): NF54 strain instead of 3D7; read-out: EC50 (NF54), printed in the 3D7 strain column
From the text: as §1

W2 strain [2] = test: parasite proliferation assay in infected red blood cells (SYBR Green I), W2 strain; assay type: cell-based; details: Plasmodium falciparum, Erythrocyte
From the text: as §1

[3] = Plasmodium falciparum, Erythrocyte
[4] = Plasmodium falciparum, 3D7, Erythrocyte

Compound	EC50 (W2 strain [1]; [3])	EC50 (3D7 P. falciparum strain; [4])	also measured
CC(C)[C@H]1NC(=O)Cn2c1nc(-c1ccc(F)cc1)c2Nc1ccc(Cl)cc1 [Compound 549]	3260 nM	1700 nM	–
CC(C)[C@H]1NC(=O)Cn2c1nc(-c1ccc(F)cc1)c2Nc1ccc(Cl)c(F)c1 [Compound 550]	3600 nM	2560 nM	–
CC1(C)NC(=O)Cn2c1nc(-c1ccc(F)c(F)c1)c2Nc1ccc(Cl)c(F)c1 [Compound 551]	98 nM	40 nM	–
CC1(C)c2nc(-c3ccc(F)cc3)c(Nc3cccc(NS(C)(=O)=O)c3)n2CCN1C(=O)CN [Compound 552]	4480 nM	2520 nM	–
CNC(=O)c1cccc(Nc2c(-c3ccc(F)cc3)nc3n2CCN(C(=O)CN)C3(C)C)c1 [Compound 553]	4660 nM	2370 nM	–
CC1(C)NCCn2c1nc(-c1ccc(F)cc1)c2Nc1cc(F)c(F)c(F)c1 [Compound 555]	16 nM	10 nM	–
CN1Cc2nc(-c3ccc(F)cc3)c(Nc3ccc(Cl)cc3)n2CC1(C)C [Compound 556, N-(4-chlorophenyl)-2-(4-fluorophenyl)-6,6,7-trimethyl-5,6,7,8-tetrahydroimidazo[1,2-a]pyrazin-3-amine]	75 nM	60 nM	–
CC1(C)Cn2c(nc(-c3ccc(F)cc3)c2Nc2ccc(Cl)cc2)CN1C(=O)CN [Compound 557]	20 nM	20 nM	–
CC1(C)Cn2c(nc(-c3ccc(F)cc3)c2Nc2ccc(Cl)cc2)CN1 [Compound 558]	89 nM	60 nM	–
C[C@@H]1NC(=O)Cn2c1nc(-c1ccc(F)cc1)c2Nc1ccc(Cl)c(F)c1 [Compound 559]	642 nM	530 nM	–
Cc1cc(Nc2c(-c3ccc(F)cc3)nc3n2CC(=O)NC3(C)C)nn1C [Compound 560]	5220 nM	3610 nM	–
CCN1CCCC1CNc1c(-c2ccc(F)cc2)nc2n1CC(=O)NC2(C)C (stereo not drawn) [Compound 561]	4400 nM	7170 nM	–
CC(C)[C@@H]1NC(=O)Cn2c1nc(-c1ccc(F)cc1)c2Nc1ccc(Cl)c(F)c1 [Compound 562]	6290 nM	4820 nM	–
C[C@@H]1NC(=O)Cn2c1nc(-c1ccc(F)cc1)c2Nc1ccc(Cl)cc1 [Compound 563]	445 nM	310 nM	–
C[C@H]1NC(=O)Cn2c1nc(-c1ccc(F)cc1)c2Nc1ccc(Cl)c(F)c1 [Compound 564]	359 nM	250 nM	–
C[C@H]1NC(=O)Cn2c1nc(-c1ccc(F)cc1)c2Nc1ccc(Cl)cc1 [Compound 565]	105 nM	70 nM	–
CC1(C)NC(=O)Cn2c1nc(-c1ccc(F)cc1)c2Nc1cnc2ccccc2c1 [Compound 566]	4460 nM	5480 nM	–
CC1(C)NC(=O)Cn2c1nc(-c1ccc(F)cc1)c2Nc1ccc(S(C)(=O)=O)cc1 [Compound 567]	8460 nM	6460 nM	–
CN1CCN(c2ccc(Nc3c(-c4ccc(F)cc4)nc4n3CC(=O)NC4(C)C)cc2)CC1 [Compound 568]	> 11300 nM	> 8040 nM	–
CN1CCN(Cc2cccc(Nc3c(-c4ccc(F)cc4)nc4n3CC(=O)NC4(C)C)c2)CC1 [Compound 569]	7920 nM	9270 nM	–

Compound	EC50 (W2 strain [1]; [3])	EC50 (3D7 P. falciparum strain; [4])	also measured
CC1(C)c2nc(-c3ccc(F)cc3)c(Nc3ccc(S(C)(=O)=O)cc3)n2CCN1C(=O)CN [Compound 570]	5560 nM	5680 nM	–
CN1CCN(c2ccc(Nc3c(-c4ccc(F)cc4)nc4n3CCN(C(=O)CN)C4(C)C)cc2)CC1 [Compound 571]	7480 nM	6200 nM	–
CN1CCN(c2ccc(Nc3c(-c4ccc(F)cc4)nc4n3CCNC4(C)C)cc2)CC1 [Compound 572]	8730 nM	11200 nM	–
Cc1ccc(Nc2c(-c3ccc(F)cc3)nc3n2CC(C)(C)N(C(=O)CN)C3)cc1 [Compound 573]	55 nM	40 nM	–
CC1(C)Cn2c(nc(-c3ccc(F)cc3)c2Nc2ccc(F)cc2)CN1C(=O)CN [Compound 574]	111 nM	80 nM	–
CC1(C)Cn2c(nc(-c3ccc(F)cc3)c2Nc2ccc(F)c(F)c2)CN1C(=O)CN [Compound 575]	81 nM	80 nM	–
CC1(C)Cn2c(nc(-c3ccc(F)cc3)c2Nc2ccc(Cl)c(F)c2)CN1C(=O)CN [Compound 576]	234 nM	200 nM	–
CC1(C)Cn2c(nc(-c3ccc(F)cc3)c2Nc2ccc(C#N)c(F)c2)CN1C(=O)CN [Compound 577]	611 nM	630 nM	–
Cc1ccc(Nc2c(-c3ccc(F)cc3)nc3n2CC(C)(C)NC3)cc1 [Compound 578]	339 nM	250 nM	–
CC1(C)Cn2c(nc(-c3ccc(F)cc3)c2Nc2ccc(F)cc2)CN1 [Compound 579]	146 nM	180 nM	–
CC1(C)Cn2c(nc(-c3ccc(F)cc3)c2Nc2ccc(F)c(F)c2)CN1 [Compound 580]	169 nM	150 nM	–
CC1(C)Cn2c(nc(-c3ccc(F)cc3)c2Nc2ccc(C#N)c(F)c2)CN1 [Compound 581]	668 nM	650 nM	–
COc1ccc(CN2Cc3nc(-c4cccc(F)c4)c(Nc4ccc(C)cc4)n3C(C)(C)C2)cc1 [Compound 582]	5920 nM	5560 nM	–
CC(C)(N)C(=O)N1CCn2c(nc(-c3ccc(F)cc3)c2Nc2ccc(F)cc2)C1(C)C [Compound 583]	9 nM	10 nM	–
CC(C)(N)C(=O)N1CCn2c(nc(-c3ccc(F)cc3)c2Nc2ccc(Cl)cc2)C1(C)C [Compound 584]	21 nM	20 nM	–
CC(C)(N)C(=O)N1CCn2c(nc(-c3ccc(F)cc3)c2Nc2ccc(F)c(F)c2)C1(C)C [Compound 585]	7 nM	10 nM	–
CC(C)(N)C(=O)N1CCn2c(nc(-c3ccc(F)cc3)c2Nc2ccc(F)c(Cl)c2)C1(C)C [Compound 586]	7 nM	10 nM	–
CC(C)(N)C(=O)N1CCn2c(nc(-c3ccc(F)cc3)c2Nc2ccc(Cl)c(Cl)c2)C1(C)C [Compound 587]	12 nM	10 nM	–
Cc1cc(Nc2c(-c3ccc(F)cc3)nc3n2CCN(C(=O)C(C)(C)N)C3(C)C)ccc1F [Compound 588]	4 nM	10 nM	–
Cc1cc(Nc2c(-c3ccc(F)cc3)nc3n2CCN(C(=O)C(C)(C)N)C3(C)C)ccc1Cl [Compound 589]	6 nM	10 nM	–

Compound	EC50 (W2 strain [1]; [3])	EC50 (3D7 P. falciparum strain; [4])	also measured
Cc1ccc(Nc2c(-c3ccc(F)cc3)nc3n2CCN(C(=O)C(C)(C)N)C3(C)C)cc1C#N [Compound 590]	18 nM	30 nM	–
CC(C)(N)C(=O)N1CCn2c(nc(-c3ccc(F)cc3)c2Nc2ccc(C#N)c(Cl)c2)C1(C)C [Compound 591]	46 nM	60 nM	–
Cc1ccc(Nc2c(-c3cccc(F)c3)nc3n2C(C)(C)CN(C(=O)[C@@H](O)C(C)C)C3)cc1 [Compound 592]	5260 nM	6010 nM	–
Cc1ccc(Nc2c(-c3cccc(F)c3)nc3n2C(C)(C)CN(C(=O)C(C)(C)N)C3)cc1 [Compound 593]	3940 nM	5060 nM	–
Cc1ccc(Nc2c(-c3cccc(F)c3)nc3n2C(C)(C)CN(C(=O)CN)C3)cc1 [Compound 594]	32 nM	20 nM	–
CC(C)[C@H]1c2nc(-c3ccc(F)cc3)c(Nc3ccc(Cl)c(F)c3)n2CCN1C(=O)CN [Compound 595]	485 nM	340 nM	–
C[C@@H]1c2nc(-c3ccc(F)cc3)c(Nc3ccc(Cl)c(F)c3)n2CCN1C(=O)CN [Compound 596]	29 nM	30 nM	–
C[C@H]1c2nc(-c3ccc(F)cc3)c(Nc3ccc(Cl)c(F)c3)n2CCN1C(=O)CN [Compound 597]	24 nM	30 nM	–
CC1(C)c2nc(-c3ccc(F)cc3)c(Nc3ccc(F)cc3)n2CC(=O)N1CCN [Compound 687, 7-(2-aminoethyl)-2-(4-fluorophenyl)-3-(4-fluorophenylamino)-8,8-dimethyl-7,8-dihydroimidazo[1,2-a]pyrazin-6(5H)-one]	–	–	EC50 (NF54): 3420 nM; EC50 (W2 strain [2]): 3350 nM
CC1(C)c2nc(-c3ccc(F)cc3)c(Nc3ccc(F)cc3)n2CC(=O)N1CCO [Compound 688]	–	–	EC50 (NF54): 106 nM; EC50 (W2 strain [2]): 134 nM
CC1(C)c2nc(-c3ccc(F)cc3)c(CC3CCCCC3)n2CCN1C(=O)CN [Compound 699]	–	–	EC50 (NF54): 678 nM
CC1(C)c2nc(-c3ccc(F)cc3)c(Oc3ccc(Cl)cc3)n2CCN1C(=O)CN [Compound 710]	–	–	EC50 (NF54): 28 nM
CC1(C)c2nc(-c3ccc(F)cc3)c(Oc3ccc(F)c(F)c3)n2CCN1C(=O)CN [Compound 711]	–	–	EC50 (NF54): 34 nM
Cc1cc(Oc2c(-c3ccc(F)cc3)nc3n2CCN(C(=O)CN)C3(C)C)ccc1F [Compound 712]	–	–	EC50 (NF54): 19 nM
Cc1ccc(S(=O)(=O)c2c(-c3ccc(F)cc3)nc3n2CCN(C(=O)CN)C3(C)C)cc1 [Compound 725]	–	–	EC50 (NF54): 5210 nM
CC1(C)c2nc(-c3ccc(F)cc3)c(Nc3ccc(F)cc3)n2CCN1C(=O)CNC(=O)CCC1=[N+]2C(=Cc3ccc(-c4ccccc4)n3[B-]2(F)F)C=C1 [Compound 731]	–	–	EC50 (NF54): 2270 nM; EC50 (W2 strain [2]): 5610 nM
COc1ccc(-c2ccc3n2[B-](F)(F)[N+]2=C(C)C(CCC(=O)NCCCCCC(=O)NCC(=O)N4CCn5c(nc(-c6ccc(F)cc6)c5Nc5ccc(F)cc5)C4(C)C)=C(C)C2=C3)cc1 [Compound 732]	–	–	EC50 (NF54): 1220 nM; EC50 (W2 strain [2]): 1440 nM
tert-butyl 1-(2-(4-fluorophenyl)-5,6-dihydroimidazo[1,2-a]pyrazin-7(8H)-yl)-2-methyl-1-oxopropan-2-ylcarbamate [Compound 530]	–	–	EC50 (W2 strain [1]; W2 strain): 6420 nM; EC50 (3D7 P. falciparum strain): 1230 nM
